Laboratory results: patent US20140158116A1, “INHIBITING TRPA1 FOR THE TREATMENT OF ASTHMA” (Cubist Pharmaceuticals, Inc., priority 2012, published 2014)
Read-outs that look alike come from different tables or passages of the source.

What was measured:
hERG = hERG (Homo sapiens, UniProt Q12809); assay: Patch clamp selectivity, hERG; format: cell-based
Experimental: Data for TRPA1 inhibition and the selectivity of TRPA1 inhibition was obtained by this method for the compound of Formula (Ia) and included in Table 1 and Table 2. All currents were recorded in whole-cell configuration using EPC-9 and EPC-10 amplifiers and Patchmaster software (HEKA). […] The standard pipette solution consisted of 140 mM CsAsp, 10 mM EGTA, 10 mM HEPES, 2.27 mM MgCl2, 1.91 mM CaCl2, 4 mM MgATP, and 0.1-0.3 mM Na2GTP, with pH adjusted to 7.2 with CsOH. In addition, a solution containing 145 mM CsCl, 10 mM HEPES, 10 mM EGTA and 1 mM MgCl2 (pH 7.2 adjusted with CsOH) can be used. The standard bath solution contained 150 mM NaCl, 10 mM HEPES, 10 mM glucose, 4.5 mM KCl, 1 mM EGTA, 3 mM MgCl2, with pH adjusted to 7.4 with NaOH. In some instances, 2 mM CaCl2 was added in place of EGTA and the concentration of MgCl2 was reduced to 1 mM.
Data were collected either by continuous recordings at −60 mV or by applying voltage ramps from a holding potential of 0 mV every 4 s. […] Inward and outward currents were analyzed from the ramps at −80 and 80 mV, respectively. […]
Solutions were switched using a gravity-fed continuous focal perfusion system. […] Temperatures were confirmed using a thermistor (Warner Instruments, TA-29), with temperatures at the recorded cell estimated to be within +/−2° C. of those reported. […]

[1] = Oral bioavailability pharmacokinetic study; format: in vivo; settings: rat, plasma, PO versus IV
Experimental: The potency and pharmacokinetic (PK) properties of (a) the compound of Formula (Ia); and (b) comparator compound of Formula (III) were evaluated. Bioavailability was measured as well. A pharmacokinetic study was performed to obtain a plasma drug concentration vs time plot for the drug after both intravenous (IV) and oral (PO) administration. The absolute bioavailability is the dose-corrected area under curve (AUC) non-intravenous divided by AUC intravenous. The formula for calculating F for a drug administered by the oral route (PO) is given below.
The bioavailability was calculated using the equation shown below:
% F=AUC PO×Dose IV/AUC IV×Dose PO

[2] = test system: Ascaris suum antigen-induced pulmonary resistance; assay: Sheep allergic asthma model, pulmonary resistance (RL) after Ascaris suum antigen; format: in vivo
Experimental: Compounds were tested in the sheep model of experimental asthma reported in Abraham W M, Asthma & Rhinitis, 2000: 1205-1227 incorporated herein by reference in its entirety.
The unsedated sheep were restrained in a cart in the prone position with their heads immobilized. After topical anesthesia of the nasal passages with 2% lidocaine solution, a balloon catheter was advanced through one nostril into the lower esophagus. The sheep were intubated with a cuffed endotracheal tube through the other nostril. Pleural pressure was estimated with the esophageal balloon catheter. Lateral pressure in the trachea was measured with a sidehole catheter (inner dimension, 2.5 mm) advanced through and positioned distal to the tip of the endotracheal tube. Transpulmonary pressure, the difference between tracheal and pleural pressure, was measured with a differential pressure transducer catheter system. For the measurement of pulmonary resistance (RL), the proximal end of the endotracheal tube was connected to a pneumotachograph. […]
Baseline concentration response curves to aerosol Carbachol were obtained 1 to 3 days before commencement of drug/vehicle treatment. […] Baseline values of pulmonary resistance (RL) were obtained within 30 minutes of treatment and then re-measured 30 minutes before antigen challenge. […]

Chain of hERG (Q12809 whole entry): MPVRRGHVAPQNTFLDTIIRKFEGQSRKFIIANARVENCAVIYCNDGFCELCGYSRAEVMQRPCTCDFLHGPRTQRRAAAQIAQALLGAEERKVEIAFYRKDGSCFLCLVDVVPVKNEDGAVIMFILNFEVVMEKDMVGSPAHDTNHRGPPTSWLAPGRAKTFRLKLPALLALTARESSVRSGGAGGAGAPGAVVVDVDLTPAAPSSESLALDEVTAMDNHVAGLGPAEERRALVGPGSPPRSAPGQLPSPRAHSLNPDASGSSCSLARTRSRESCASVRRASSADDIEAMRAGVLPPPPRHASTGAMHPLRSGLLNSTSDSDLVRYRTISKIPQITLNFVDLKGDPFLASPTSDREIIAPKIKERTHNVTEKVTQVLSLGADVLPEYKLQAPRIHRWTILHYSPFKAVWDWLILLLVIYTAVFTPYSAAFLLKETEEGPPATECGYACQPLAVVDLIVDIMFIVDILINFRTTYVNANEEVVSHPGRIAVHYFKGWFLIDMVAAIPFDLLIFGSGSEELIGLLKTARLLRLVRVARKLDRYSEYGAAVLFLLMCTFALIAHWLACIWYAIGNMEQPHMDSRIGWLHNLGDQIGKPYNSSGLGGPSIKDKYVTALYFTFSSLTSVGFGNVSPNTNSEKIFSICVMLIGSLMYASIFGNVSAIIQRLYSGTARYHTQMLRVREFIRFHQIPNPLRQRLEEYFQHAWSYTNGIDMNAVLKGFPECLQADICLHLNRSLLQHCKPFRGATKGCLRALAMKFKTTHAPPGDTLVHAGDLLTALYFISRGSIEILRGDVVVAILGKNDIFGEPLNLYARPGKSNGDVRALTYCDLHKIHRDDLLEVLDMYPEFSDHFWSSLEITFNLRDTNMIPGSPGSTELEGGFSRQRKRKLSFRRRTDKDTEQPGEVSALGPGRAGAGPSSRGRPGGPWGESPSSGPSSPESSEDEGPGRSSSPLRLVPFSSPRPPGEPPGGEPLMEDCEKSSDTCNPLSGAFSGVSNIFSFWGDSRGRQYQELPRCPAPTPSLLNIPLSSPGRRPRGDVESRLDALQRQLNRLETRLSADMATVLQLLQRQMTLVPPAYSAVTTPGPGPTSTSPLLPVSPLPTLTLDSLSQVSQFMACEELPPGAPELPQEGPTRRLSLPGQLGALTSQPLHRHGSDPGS

- bioavailability ([1]; oral, fed rats, read-out: Bioavailability (Rat) Fed): > 50%
- bioavailability ([1]; po, fasted rats, read-out: Bioavailability (Rat) Fasted): 25 to 50%
- bioavailability ([1]; po, fed rats, read-out: Bioavailability (Rat) Fed): > 50%
SMILES: C[C@H]1CCCN1c1ncc(-c2cccc(NC(=O)Cn3cnc4c3c(=O)n(C)c(=O)n4C)n2)cn1 [Formula (Ia)]
- IC50 (hERG; Voltage, Tail current (−40 mV)): > 10 µM
- selectivity ratio (hERG; human, pH 7.4, read-out: Fold Selectivity Compared to TRPA1): > 100
- inhibition of late phase pulmonary resistance response ([2]; 5 mg/kg PO daily for 4 days): ~45%
- inhibition of late phase pulmonary resistance response ([2]; 10 mg/kg PO daily for 4 days): approximately 75%
